Assay results reported in ChEMBL document CHEMBL1129635, “Evaluation of selected chemotypes in coupled cellular and molecular target-based screens identifies novel HIV-1 zinc finger inhibitors” (J Med Chem, 1996).
The source made the active and inactive calls. The calls are words filed in the database; no cut-off is given here.

Experiments:
[1] = test system: Human immunodeficiency virus 1; assay: Tested for cytoprotection against production of HIV-1 p24.; assay type: functional, organism-based
[2] = test system: Human immunodeficiency virus 1; assay: Effective concentration required for 50% production of p24 production.; assay type: functional, organism-based
[3] = test system: Human immunodeficiency virus 1; assay: Compound was tested for inhibition of HIV-1 replication in human T-cell by using XTT assay; Moderately active; assay type: functional, organism-based
[4] = test system: Human immunodeficiency virus 1; assay: Tested against zinc finger of the recombinant HIV-1 p7NC protein by using Trp residue for fluorometric measurements; assay type: functional
[5] = test system: Human immunodeficiency virus 1; assay: Tested against zinc finger of the recombinant HIV-1 p7NC toluenesulfonamide) residue for fluorometric measurements; assay type: functional
[6] = test system: Human immunodeficiency virus 1; assay: Inhibition of HIV-1 replication in human T-cell by using XTT assay.; assay type: functional
[7] = test system: Human immunodeficiency virus 1; assay: Compound was tested for effective concentration required for 50% production of p24 production; NA = Not active; assay type: functional, organism-based
T-cell line = assay: Compound was tested for inhibition of HIV-1 replication in human T-cell by using XTT assay; Active; assay type: functional, cell-based

IC50 [1]	EC50 [2]	EC50 [7]	Structure (SMILES)	Activity [3]	Decrease in RFU [4]	increase in RFU [5]	TI50 [6]	Activity (T-cell line)
> 100 µM	> 100 µM		O=C(O)Cc1ccc(SSc2ccc(CC(=O)O)cc2)cc1	Weak activity	51.5%	10.6%	>8.7	
		Not Active	COS(=O)CCOC(=O)c1ccccc1SSc1ccccc1C(=O)OCCS(=O)OC (stereo not given)	Weak activity			>2.1	
> 100 µM	> 100 µM		NC(=O)CSSCC(N)=O	Weak activity	2.1%	1.2%	6.5	
> 100 µM	7.5 µM		COc1cc(SSc2cc(OC)cc([N+](=O)[O-])c2N)c(N)c([N+](=O)[O-])c1	Weak activity	80.5%	0%	8.5	
> 100 µM	> 100 µM		Nc1cc(C(=O)O)ccc1SSc1ccc(C(=O)O)cc1N	Weak activity	79.3%	10.9%	>6.4	
96 µM	21 µM		NNC(=O)c1ccccc1SSc1ccccc1C(=O)NN	Weak activity	80.9%	28.5%	5	
> 100 µM	37.2 µM		O=S(=O)(SC1=NCCN1)c1ccccc1	Weak activity	76.1%	15.7%	4.3	
> 100 µM	3.5 µM		O=C(N/N=C\c1ccc(Cl)cc1Cl)c1ccccc1SSc1ccccc1C(=O)N/N=C\c1ccc(Cl)cc1Cl		31.3%	1.6%	>15.9	Active
> 100 µM	32 µM		Cc1cc(C(=O)O)c(C)cc1SSc1cc(C)c(C(=O)O)cc1C	Weak activity	76.1%	15.7%	3.6	
> 100 µM	80 µM		Cc1cc(S(=O)(=O)C2=NC(Nc3ccccc3)NN2)c(SSc2cc(Cl)c(C)cc2S(=O)(=O)C2=NC(Nc3ccccc3)NN2)cc1Cl (stereo not given)	Weak activity	92.1%	1.5%	15.7	
97 µM	> 100 µM		Nc1ccc(S(N)(=O)=O)cc1SSc1cc(S(N)(=O)=O)ccc1N	Weak activity	52.1%	26%	>14.2	
		Not Active	Cc1cc(C)c(C(=O)O)c(SSc2cc(C)cc(C)c2C(=O)O)c1	Weak activity			2.7	
> 100 µM	> 100 µM		O=C(O)c1ccc(SSc2ccc(C(=O)O)cc2)cc1	Weak activity	62.5%	22.3%	>1.6	

More lines, now with the values behind:

Structure (SMILES)	IC50 [1]	EC50 [2]	EC50 [7]	Activity [3]	Decrease in RFU [4]	increase in RFU [5]	TI50 [6]	Activity (T-cell line)
N=C(N)Nc1ccccc1SSc1ccccc1N=C(N)N	> 100 µM	10 µM			31.3%	1.6%	32	Active
Nc1cc(S(N)(=O)=O)ccc1SSc1ccc(S(N)(=O)=O)cc1N	100 µM	> 100 µM		Weak activity	81.8%	24.4%	14.9	
O=C(O)c1ccccc1SSc1ccccc1C(=O)O	> 100 µM	57.5 µM		Weak activity	6%	9.8%	>1.7	
COC(=S)SSC(=S)N(CC/N=C(/S)SSC(=S)OC)CC/N=C(\S)SSC(=S)OC	> 100 µM	> 100 µM		Weak activity	37.7%	10.6%	2.6	
CC1(C)CC2=NC(SSC3=C(C#N)C(c4ccc(F)cc4)C4=C(O)CC(C)(C)CC4=N3)=C(C#N)C(c3ccc(F)cc3)C2=C(O)C1 (stereo not given)	> 100 µM	> 100 µM		Weak activity	78.1%	0.3%	3.2	
CC(=O)NCCSS(=O)(=O)CCCCS(=O)(=O)SCCNC(C)=O	> 100 µM	> 100 µM		Weak activity	82.5%	32.8%	>1.6	
O=C(O)c1cccc(SS(=O)(=O)c2cccc(C(=O)O)c2)c1	> 100 µM	71 µM		Weak activity	91.2%	21.1%	13.7	
CC(=O)NC1CN=C(SSC2=NCC(NC(C)=O)S2)S1 (stereo not given)	> 100 µM	> 100 µM		Weak activity	77.8%	8%	>5.3	
NS(=O)(=O)c1ccc(SSc2ccc(S(N)(=O)=O)cc2[N+](=O)[O-])c([N+](=O)[O-])c1				Weak activity			>5.8	
CNCCSS(=O)(=O)CCNC				Weak activity			>1.8	
CC1(C)CC2=NC(SSC3=C(C#N)C(c4ccc(Br)cc4)C4=C(O)CC(C)(C)CC4=N3)=C(C#N)C(c3ccc(Br)cc3)C2=C(O)C1 (stereo not given)	> 100 µM	> 100 µM		Weak activity	24.8%	0.3%	3.4	
